Literature values as cited in patent US10183022B2, “Pharmaceutical composition for treating ulcerative colitis” (EA Pharma Co., Ltd., priority 2014, dated 2019).

Test system: administered patients
Details: among the administered patients, intravenous infusion; cited from earlier work

Infliximab: anti-TNFα antibody, given by intravenous infusion
Patients showing the loss of the response: ≤ 70%
